The results in this text go back to patent US20150196533A1, “METHOD FOR CONCURRENT TREATMENT OF PAIN AND DEPRESSION” (The General Hospital Corporation, priority 2012, published 2015).

Entries after “also recorded” stand apart in the source; their conditions may differ.

Holding throughout (format): in vivo, rat
The subject of test [1] is Wistar rats with CFA-induced arthritis. The test can be described thus: Nociceptive tests (von Frey, Hargreaves) in rats with CFA-induced hindpaw monoarthritis. The conditions noted are these: for nociceptive behavior (mechanical allodynia, ipsilateral hindpaw; FIG. 5A): intraperitoneal, 10 mg/day, twice daily for 14 consecutive days after CFA. As to the method:
Hindpaw monoarthritis was induced by the injection of CFA (50 μl) into a unilateral tibio-tarsal joint cavity under brief isoflurane anesthesis (Butler, S. H., et al, and Weil-Fugazza, J. 1992. A limited arthritic model for chronic pain studies in the rat. Pain 48:73-81). Animals in sham groups received the injection of 50 μl Incomplete Freund's Adjuvant.
(§1) Under brief isoflurane anesthesia, a guide cannula (26 gauge, Plasticsone) was implanted just above the hippocampus (AP: −3.6 mm; left: +2.0 mm from Bregma; depth: −4.0 mm from skin) (Paxinos, G., and Watson, C. 1998. The rat brain in stertaxic coordinates. New York: Academic Press). An injection needle (33 gauge, Plasticsone) was inserted through the guide cannula and drug solution or vehicle (0.5 μl) was slowly injected over 5 min using a Hamilton syringe. Locations of the cannula placement were confirmed at the time of tissue harvest (data not shown).
(§2) Animals were habituated to a test setting (30-min session) for three consecutive days. Thermal withdrawal threshold was assessed using the Hargreaves' apparatus and method (Hargreaves, K., et al., 1988. A new and sensitive method for measuring thermal nociception in cutaneous hyperalgesia. Pain 32:77-88). Mechanical withdrawal threshold was assessed using von Frey filaments (Tal, M., and Bennett, G. J. 1994. Extra-territorial pain in rats with a peripheral mononeuropathy: mechano-hyperalgesia and mechano-allodynia in the territory of an uninjured nerve. Pain 57:375-382).

The test system is the same in test [2]. The test can be described thus: Depressive behavior (forced swim test) in rats with CFA-induced hindpaw monoarthritis. Conditions: for depressive behavior (immobility time in FST; FIG. 6H): 100 mg/kg intraperitoneally once on day 14, same arthritic rats, P>0.05.
A further test deals with IL-6. The test can be described thus: Plasma IL-6 level (ELISA) in rats with nociceptive and depressive behavior. The conditions noted are these: systemic treatment; rats with both nociceptive and depressive behavior; data not shown. As to the method:
Under pentobarbital anesthesia, whole blood was collected from the left ventricle of the heart and placed in a serum collection tube (BD Vacutainer). Blood clots were formed after 30-60 min at room temperature and the tube was centrifuged for 10 min at 12,000 rpm. ELISA Quantikine kit (R&D Systems) and IDO ELISA kit (TSZ ELISA) was used according to the manufacturer's instructions. Optical density of samples was read at wavelengths of 450 & 570 nm using a microplate reader (Synergy HT, Bio-TEK®). A standard curve, provided by the manufacturer, was generated for each set of samples assayed and the concentration of each sample was obtained according to the standard curve.
A general note: ELISA stands for enzyme-linked immunosorbent assay.

Another test relates to IDO1/TPH2. The test can be described thus: IDO1/TPH2 expression in the hippocampus of CFA rats (Example 11). The conditions noted are these: intraperitoneally once per day, day 1 to day 14 (1-MT 10 mg, fluoxetine 5 mg); tissue taken 7 days after discontinuation. An excerpt:
Rats were divided into five groups: 1) sham-operated rats treated with a vehicle (Sham), 2) CFA-induced hindpaw pain treated with vehicle (C-V). […] Each treatment was given intraperitoneally once per day from day 1 to day 14. Hippocampal tissue samples were taken after the last behavioral tests at 7 days after discontinuation of the corresponding drug treatment.

The test system of a further test is naive rats. The test is described as follows: Intra-hippocampal microinjection in naive rats: nociceptive and depressive behavior. As to the method:
as §1, §2
FST was performed according to the original method by Porsolt et al (Porsolt, R. D., Le, P. M., and Jalfre, M. 1977. Depression: a new animal model sensitive to antidepressant treatments. Nature 266:730-732). The total duration of immobility (non-swimming) within a 5-min session was recorded as immobility scores (in seconds) and compared among groups.

Test [3] concerns IDO1. The test can be described thus: Intra-hippocampal microinjection in naive rats: hippocampal IDO1 mRNA (real-time PCR). The conditions noted are these: intra-hippocampal microinjection alone, naive rats; P>0.05. As to the method:
as §1
Total RNA was isolated from hippocampal samples using TRIzol reagent (Invitrogen). Four μg of total RNA was used to synthesize the first strand cDNA using SuperScript III kit (Invitrogen). Four μl of cDNA was put into 20 μl vessel with 1 μl of 20× TaqMan Gene Expression Assay. Taqman Gene Expression Assays (Applied Biosystems) containing primers and a Taqman probe were used to quantify each gene of interest. The genes examined were IL-6 (Rn01410330 m1, M26744.1) and IDO1 (Rn00576778 m1, AF312699.1) for rats and IL-6 (Mm00446190 m1, X54542.1) and IDO1 (Mm00492586 m1, M69109.1) for mice. […] The RNA expression of GAPDH was measured as control.

The subject of test [4] is IDO1. The test can be described thus: Hippocampal IDO1 expression (Western blot, real-time PCR) in rats with CFA-induced arthritis. Conditions: 100 mg/kg intraperitoneally once on day 14, same arthritic rats, P>0.05. For orientation: In western blotting, separated proteins are transferred to a membrane and probed.
Procedure: Rats were sacrificed under pentobarbital anesthesia.
Total RNA was isolated from hippocampal samples using TRIzol reagent (Invitrogen). Four μg of total RNA was used to synthesize the first strand cDNA using SuperScript III kit (Invitrogen). Four μl of cDNA was put into 20 μl vessel with 1 μl of 20× TaqMan Gene Expression Assay. Taqman Gene Expression Assays (Applied Biosystems) containing primers and a Taqman probe were used to quantify each gene of interest. […] The reaction was performed in duplicate with the following conditions: denaturing at 95° C. for 30 s, annealing at 60° C. for 2 min, extension at 68° C. for 2 min for 40 cycles using a 7300 Real-Time PCR System (Applied Biosystems). The RNA expression of GAPDH was measured as control.
The mark [5] stands for this setting: 100 mg/kg intraperitoneally once on day 14, examined 1 hr after, arthritic rats, P<0.05 vs vehicle.

Turning to `Cn1cc(C[C@H](N)C(=O)O)c2ccccc21` [1-MT, L-1-methyl-tryptophan], the “nociceptive behavior (thermal hyperalgesia, ipsilateral hindpaw; FIG. 5C)” value in test [1] (intra-hippocampal microinjection, 5 μg in 0.5 μl, once daily x 7 d, contralateral to arthritic hindpaw, P<0.05) was “attenuated thermal hyperalgesia”. For the same compound, the “behaviors in sham control rats” value in test [1] (intra-hippocampal microinjection) is listed as “without changing behaviors in sham control rats”; in test [1] (systemic (intraperitoneal) treatment alone), “did not alter behaviors in sham controls rats”. Besides, the “nociceptive behavior (mechanical allodynia, ipsilateral hindpaw; FIG. 5A)” value was “significantly attenuated” in test [1] (arthritic rats, P<0.05 vs vehicle) and “attenuated mechanical allodynia” in test [1] (arthritic rats, P<0.05 vs vehicle, listed as L-1-MT). For the same compound, the “depressive behavior (immobility time in forced swimming test; FIG. 5D)” value in test [2] (intra-hippocampal microinjection, 5 μg in 0.5 μl, once daily x 7 d, P<0.05) is “attenuated; also recorded: reduced the immobility time in forced swimming test”. Further, the “depressive behavior (immobility time in forced swimming test; FIG. 5B)” value in test [2] (intraperitoneal, 10 mg/day, twice daily for 14 consecutive days after CFA, arthritic rats, P<0.05 vs vehicle) is “significantly attenuated; also recorded: improved the immobility time in forced swimming test”. Besides, the “elevation of the plasma IL-6 level” value in the test with IL-6 is “did not prevent elevation of the plasma IL-6 level”. In the test with IDO1/TPH2, the “IDO up-regulation in the hippocampus” value is “prevented the IDO up-regulation”.
As for `N#C/C(=C/c1ccc(O)c(O)c1)C(=O)NCc1ccccc1` [AG490], in the test on naive rats (5 μg once daily x 7 d co-administered with IL-6 into the hippocampus of naive rats, each P<0.05), the “IL-6 effects (mechanical allodynia, thermal hyperalgesia, depressive behavior, hippocampal IDO1 mRNA; FIG. 9E-H)” value is “prevented; also recorded: blocked”. In addition, the baseline behavioral response entry in the test on naive rats (intra-hippocampal microinjection alone, naive rats, P>0.05) is on record as “had no effect”. Besides, the “IDO1 mRNA expression” value in the test with IDO1 [3] is listed as “had no effect”.
Regarding `CNCCC(Oc1ccc(C(F)(F)F)cc1)c1ccccc1` (stereo not shown) [SSRI, fluoxetine], the “IDO1/TPH2 ratio in the hippocampus” value in the test with IDO1/TPH2 is on record as “did not alter the IDO1/TPH2 ratio”.
As for `CC(=O)Nc1ccc(O)cc1` [acetaminophen, N-acetyl-para-aminophen], the “mechanical allodynia (ipsilateral; FIG. 6F)” value in test [1] (setting [5]) is “significantly reduced; also recorded: attenuated”. In test [1] (setting [5]), the “thermal hyperalgesia (FIG. 6G)” value is “significantly reduced; also recorded: attenuated”. Also, the “depressive behavior (immobility time in FST; FIG. 6H)” value in test [2] is given as “did not acutely reverse depressive behavior”; in test [2] (listed as APAP), “did not change the immobility time in FST”. Also, the “hippocampal IDO1 mRNA level (FIG. 6I)” value is on record as “nor did it alter the IDO1 mRNA level” in the test with IDO1 [4] and “not reversed” in the test on IDO1 [4] (listed as APAP).
